Laboratory results: PubChem BioAssay (NCI)
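Protocol summary: plate cells (96-well), add compound at 5 concentrations, incubate 48 h, interpolate endpoints linearly. GI50: concentration for 50% inhibition of growth. TGI: concentration producing complete growth inhibition.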

What was measured:
Test in all cases: NCI tumour cell line growth inhibition, 48 h
[1] = test system: SNB-19 CNS
[2] = test system: NCI-H226 lung
[3] = test system: UO-31 renal
[4] = test system: A498 renal
[5] = test system: HCT-116 colon
[6] = test system: TK-10 renal
[7] = test system: A549 NSCLC
[8] = test system: UACC-257 melanoma
[9] = test system: LOX IMVI melanoma
[10] = test system: UACC-62 melanoma
[11] = test system: NCI-H522 lung
[12] = test system: SK-OV-3 ovarian
[13] = test system: NCI-H460 lung
[14] = test system: SW-620 colon
[15] = test system: OVCAR-5 ovarian
[16] = test system: U251 CNS
[17] = test system: SF-295 CNS
[18] = test system: SR leukemia
[19] = test system: OVCAR-8 ovarian
[20] = test system: ACHN renal
[21] = test system: M14 melanoma
[22] = test system: MCF7 breast
[23] = test system: DU-145 prostate
[24] = test system: EKVX NSCLC
[25] = test system: SNB-75 CNS
[26] = test system: PC-3 prostate
[27] = test system: SK-MEL-2 melanoma
[28] = test system: COLO 205 colon
[29] = test system: HOP-62 NSCLC
[30] = test system: MALME-3M melanoma
[31] = test system: OVCAR-4 ovarian
[32] = test system: CCRF-CEM leukemia
[33] = test system: CAKI-1 renal
[34] = test system: OVCAR-3 ovarian
[35] = test system: SN12C renal
[36] = test system: HCC-2998 colon
[37] = test system: MDA-MB-435
[38] = test system: HL-60(TB) leukemia
[39] = test system: RXF 393 renal
[40] = test system: MOLT-4 leukemia
[41] = test system: NCI/ADR-RES ovarian
[42] = test system: HS 578T breast
[43] = test system: NCI-H23 lung
[44] = test system: T-47D breast
[45] = test system: HOP-92 NSCLC
[46] = test system: K-562 leukemia
[47] = test system: RPMI-8226 leukemia
[48] = test system: MDA-MB-231 breast
[49] = test system: SK-MEL-5 melanoma
[50] = test system: SK-MEL-28 melanoma
[51] = test system: SF-539 CNS
[52] = test system: KM12 colon
[53] = test system: SF-268 CNS
[54] = test system: HCT-15 colon
[55] = test system: HT29 colon
[56] = test system: BT-549 breast
[57] = test system: 786-0 renal

## NC(=O)C1CCN(Cc2c(Cl)c(Cl)c(CN3CCC(C(N)=O)CC3)c(Cl)c2Cl)CC1
[1]
  TGI: > 100 µM
[2]
  TGI: > 100 µM
[3]
  TGI: > 100 µM
[4]
  TGI: 90.6 µM
[5]
  TGI: > 100 µM
[6]
  TGI: > 100 µM
[7]
  TGI: > 100 µM
[8]
  TGI: > 100 µM
[9]
  TGI: > 100 µM
[10]
  TGI: > 100 µM
[11]
  TGI: > 100 µM
[12]
  TGI: 46.5 µM
[13]
  TGI: > 100 µM
[14]
  TGI: > 100 µM
[15]
  TGI: > 100 µM
[16]
  TGI: > 100 µM
[17]
  TGI: 75.3 µM
[18]
  TGI: > 100 µM
[19]
  TGI: > 100 µM
[20]
  TGI: > 100 µM
[21]
  TGI: > 100 µM
[22]
  TGI: > 100 µM
[23]
  TGI: > 100 µM
[24]
  TGI: > 100 µM
[25]
  TGI: 63.6 µM
[26]
  TGI: > 100 µM
[27]
  TGI: > 100 µM
[28]
  TGI: > 100 µM
[29]
  TGI: 39.7 µM
[30]
  TGI: > 100 µM
[31]
  TGI: > 100 µM
[32]
  TGI: > 100 µM
[33]
  TGI: > 100 µM
[34]
  TGI: > 100 µM
[35]
  TGI: > 100 µM
[36]
  TGI: > 100 µM
[37]
  TGI: > 100 µM
[38]
  TGI: > 100 µM
[39]
  TGI: > 100 µM
[40]
  TGI: > 100 µM
[41]
  TGI: > 100 µM
[42]
  TGI: > 100 µM
[43]
  TGI: > 100 µM
[44]
  TGI: > 100 µM
[45]
  TGI: > 100 µM
[46]
  TGI: > 100 µM
[47]
  TGI: > 100 µM
[48]
  TGI: 96 µM
[49]
  TGI: > 100 µM
[50]
  TGI: > 100 µM
[51]
  TGI: 70.7 µM
[52]
  TGI: > 100 µM
[53]
  TGI: > 100 µM
[54]
  TGI: > 100 µM
[55]
  TGI: > 100 µM
[56]
  TGI: > 100 µM
[57]
  TGI: > 100 µM

## CCN(Cc1c(F)cccc1Cl)c1ccc(CO)c(Cl)c1
[1]
  GI50: 15.7 µM
  TGI: 40.1 µM
[3]
  GI50: 12.9 µM
  TGI: 26.1 µM
[4]
  GI50: < 0.0146 µM
  TGI: 0.0457 µM
[5]
  GI50: < 0.0172 µM
  TGI: 12.1 µM
[7]
  GI50: 0.573 µM
  TGI: 16.6 µM
[8]
  GI50: < 0.0248 µM
  TGI: 0.05 µM
[9]
  GI50: 18 µM
  TGI: 33.5 µM
[10]
  GI50: 0.0419 µM
  TGI: 0.269 µM
[11]
  GI50: 13.8 µM
  TGI: 28.5 µM
[12]
  GI50: 2.52 µM
  TGI: 13 µM
[13]
  GI50: < 0.0249 µM
  TGI: 11.2 µM
[14]
  GI50: 0.175 µM
  TGI: 20 µM
[15]
  TGI: 0.106 µM
[16]
  TGI: 16.6 µM
[17]
  GI50: 0.178 µM
  TGI: 15.7 µM
[18]
  GI50: 16.5 µM
  TGI: 42.7 µM
[19]
  GI50: 7.65 µM
  TGI: 23.9 µM
[20]
  GI50: 15.1 µM
  TGI: 29.4 µM
[21]
  GI50: 17.6 µM
  TGI: 35.9 µM
[22]
  GI50: < 0.02 µM
  TGI: 14.4 µM
[23]
  GI50: 11.8 µM
  TGI: 24.9 µM
[25]
  GI50: 11.1 µM
  TGI: 25.5 µM
[26]
  GI50: 12 µM
  TGI: 25.1 µM
[27]
  GI50: 0.785 µM
  TGI: 19.9 µM
[28]
  GI50: 0.694 µM
  TGI: 6.13 µM
[29]
  GI50: 0.174 µM
  TGI: 18.3 µM
[30]
  GI50: 14.1 µM
  TGI: 28.6 µM
[31]
  GI50: 0.0648 µM
  TGI: 0.661 µM
[32]
  GI50: 16.2 µM
  TGI: 39 µM
[33]
  GI50: 1.2 µM
  TGI: 17.4 µM
[34]
  GI50: < 0.034 µM
  TGI: 0.297 µM
[35]
  GI50: 11.9 µM
  TGI: 25 µM
[36]
  GI50: 3.27 µM
  TGI: 18.3 µM
[37]
  GI50: 10.9 µM
  TGI: 24.3 µM
[38]
  GI50: 13 µM
  TGI: 37.3 µM
[39]
  GI50: 6.31 µM
  TGI: 27 µM
[40]
  GI50: 17.1 µM
  TGI: 39.8 µM
[41]
  GI50: 10.4 µM
  TGI: 28.7 µM
[42]
  GI50: 18.2 µM
  TGI: 47 µM
[43]
  GI50: 13.9 µM
  TGI: 33.8 µM
[44]
  GI50: < 0.0153 µM
  TGI: 0.0496 µM
[45]
  GI50: 0.116 µM
  TGI: 0.933 µM
[46]
  GI50: 0.2 µM
  TGI: 12.6 µM
[47]
  GI50: 0.173 µM
  TGI: 22 µM
[48]
  GI50: 13.3 µM
  TGI: 27.1 µM
[49]
  GI50: 0.5 µM
  TGI: 20.1 µM
[50]
  GI50: 13.1 µM
  TGI: 27.4 µM
[51]
  GI50: 15.5 µM
  TGI: 29.8 µM
[52]
  GI50: 11.8 µM
  TGI: 25.8 µM
[53]
  GI50: 16.4 µM
  TGI: 31.4 µM
[54]
  GI50: 10 µM
  TGI: 24.7 µM
[55]
  GI50: 0.668 µM
  TGI: 16 µM
[56]
  GI50: 16.5 µM
  TGI: 31.2 µM
[57]
  GI50: 14.9 µM
  TGI: 30.1 µM
